Row | SMILES | log10 vapour pressure (mmHg) | melting point | boiling point | ready biodegradability | log10 Henry constant (atm·m³/mol) | log10 Koa | log10 Koc (L/kg)
1 | Clc1ccc2c(c1)Oc1ccccc1O2 | -4.89 | 88 °C |  |  |  |  | 
2 | O=S(=O)(Sc1ccccc1)c1ccc(Cl)cc1 |  | -86.8 °C |  |  |  |  | 
3 | COC(=O)c1ccccc1O[C@@H]1O[C@H](CO[C@@H]2OC[C@@H](O)[C@H](O)[C@H]2O)[C@@H](O)[C@H](O)[C@H]1O |  | 180 °C |  |  |  |  | 
4 | CCOC(=O)c1ccccn1 |  | 1 °C | 243 °C |  |  |  | 
5 | O=P(O)(O)OCC(O)CO (stereo unspecified) |  | -25 °C |  |  |  |  | 
6 | O=C(O)c1ccc2c(c1)CCCC2 |  | 156 °C |  |  |  |  | 
7 | O=C1C(Cl)=C(NC(=O)C(Cl)Cl)C(=O)c2ccccc21 |  | 212 °C |  |  |  |  | 
8 | CC#C[C@]1(O)CC[C@H]2[C@@H]3C[C@H](C)C4=CC(=O)CC[C@]4(C)[C@H]3CC[C@@]21C |  | 102 °C |  |  |  |  | 
9 | Oc1ccc(O)cc1 | -4.62 | 172 °C | 287 °C | readily biodegradable |  |  | 
10 | CCC(C(=O)O)c1ccc(CC(C)C)cc1 (stereo unspecified) |  | 52 °C |  |  |  |  | 
11 | CC[C@@H](C(=O)O)c1ccccc1 |  | 47.5 °C | 271 °C |  |  |  | 
12 | CCC(C)(CC)C(C)C |  |  | 145 °C |  |  |  | 
13 | CC(C)=CCCC(C)CCO (stereo unspecified) | -1.36 |  |  |  |  |  | 
14 | CCOC(=O)CCl | 0.687 | -21 °C | 144 °C |  |  |  | 
15 | C=CCCCCO |  |  |  | readily biodegradable |  |  | 
16 | c1ccc2cc(-c3ccc4ccccc4c3)ccc2c1 |  | 188 °C | 452 °C |  |  |  | 
17 | Cc1ccc(S(=O)(=O)NC(=O)NC2CCCCC2)cc1 |  | 175 °C |  |  |  |  | 
18 | O=C(N/N=C/c1ccccc1O)c1ccncc1 |  | 232 °C |  |  |  |  | 
19 | COc1ccn(C)c(=O)c1C#N |  | 202 °C |  |  |  |  | 
20 | CN(C)CCCOc1nn(Cc2ccccc2)c2ccccc12.Cl |  | 160 °C |  |  |  |  | 
21 | Cc1cccc(Nc2ccccc2)c1 | -3.83 | 30 °C | 316 °C |  |  |  | 
22 | Cl[C@H]1[C@H](Cl)[C@@H](Cl)[C@@H](Cl)[C@H](Cl)[C@H]1Cl (racemic) |  |  |  |  | -5.5 | 8.29 | 3.17

Row | SMILES | log10 vapour pressure (mmHg) | melting point | boiling point | ready biodegradability | log10 Henry constant (atm·m³/mol) | log10 Koa | log10 Koc (L/kg)
23 | O=C(O)c1cccc2cccc(Cl)c12 |  | 172 °C |  |  |  |  | 
24 | c1ccc(CC2CCCCN2)cc1 (stereo unspecified) |  | 32 °C | 268 °C |  |  |  | 
25 | Brc1ccc(Sc2ccc(Br)cc2)cc1 |  | 115 °C | 268 °C |  |  |  | 
26 | c1ccc2nc3ccc4ccccc4c3cc2c1 |  |  |  |  |  |  | 4.39
27 | CCCCCCCC(C)C | 0.276 | -74.6 °C | 167 °C |  |  |  | 
28 | CC1=CCCC1C (stereo unspecified) |  | -118 °C | 99 °C |  |  |  | 
29 | O=CCCCCC=O |  | -8 °C |  |  |  |  | 
30 | O=CC1CCCCC1 |  |  | 159 °C |  |  |  | 
31 | C[C@H]1/C(=C\C(=O)OCCN(C)C)CC[C@H]2[C@H]1C(=O)C[C@H]1C(C)(C)[C@@H](O)CC[C@]21C |  | 142 °C |  |  |  |  | 
32 | CCCCC(=O)c1ccc(C)cc1 |  | -2 °C | 256 °C |  |  |  | 
33 | Oc1c(Br)cc(Br)cc1Br |  | 95.5 °C | 286 °C | readily biodegradable |  |  | 
34 | CCOC(=O)CC(=O)c1ccc([N+](=O)[O-])cc1 |  | 72 °C |  |  |  |  | 
35 | CC(C)(C)c1ccc(C(=O)O)cc1 |  | 164 °C |  | not readily biodegradable |  |  | 
36 | Cc1ccc(Cc2ccc(C)cc2)cc1 |  | 28 °C | 286 °C |  |  |  | 
37 | O=C(O)C=Cc1cccc(Br)c1 |  | 178 °C |  |  |  |  | 
38 | Clc1nnnn1-c1ccccc1 |  | 123 °C |  |  |  |  | 
39 | c1cn[nH]n1 |  | 23 °C | 204 °C |  |  |  | 
40 | CCOC(=O)C(F)(F)C(F)(F)C(F)(F)F |  |  | 95 °C |  |  |  | 
41 | c1cc2c(cn1)CCCC2 |  | 146 °C | 218 °C |  |  |  | 
42 | C1CCN(SSN2CCCCC2)CC1 |  | 64.2 °C |  |  |  |  | 
43 | Cc1cc(O)ccc1Br |  | 63.5 °C |  |  |  |  | 
44 | COc1ccc(F)cc1 |  | -45 °C | 157 °C |  |  |  | 

Row | SMILES | log10 vapour pressure (mmHg) | melting point | boiling point | ready biodegradability | log10 Henry constant (atm·m³/mol) | log10 Koa | log10 Koc (L/kg)
45 | C#CC(C)(C)N |  | 18 °C | 79.5 °C |  |  |  | 
46 | CNC(=O)Oc1cccc2ccccc12 | -5.87 | 145 °C | 315 °C | readily biodegradable |  |  | 2.4
47 | Nc1cccc([N+](=O)[O-])c1 | -4.02 | 114 °C | 306 °C | not readily biodegradable | -8.1 |  | 1.73
48 | COc1ccccc1C(=O)O | -4.8 | 101 °C |  | readily biodegradable |  |  | 
49 | Clc1ccc2c(c1)C(c1ccccc1)=NCc1nncn1-2 |  | 228 °C |  |  |  |  | 
50 | CN(C)C(CSS(=O)(=O)c1ccccc1)CSS(=O)(=O)c1ccccc1 |  | 83.5 °C |  |  |  |  | 
51 | O=C(O)CS(=O)(=O)O |  | 85 °C |  |  |  |  | 
52 | Cc1cccc([N+](=O)[O-])c1 | -0.687 | 15.5 °C | 232 °C | not readily biodegradable | -5.03 |  | 
53 | CNC(=O)Nc1ccccc1 |  |  |  |  |  |  | 1.29
54 | CC1(C)[C@H](C(=O)O[C@H](C#N)c2cccc(Oc3ccccc3)c2)[C@@H]1/C=C\C(=O)OC(C(F)(F)F)C(F)(F)F | -9.48 | 81.5 °C |  |  |  |  | 
55 | CCC(=O)C=Cc1ccccc1 |  | 38.5 °C |  |  |  |  | 
56 | C=CC(C)CC (stereo unspecified) | 2.43 | -153 °C | 54.2 °C |  |  |  | 
57 | CCc1ccc(O)c(OC)c1 |  | -7 °C | 236 °C |  |  |  | 
58 | CC(C)OC(=O)OOC(=O)OC(C)C |  | 10 °C |  |  |  |  | 
59 | C=Cc1ccc(C)nc1 | 0.0719 |  | 181 °C |  |  |  | 
60 | CC(=O)C(N=Nc1ccc(-c2ccc(N=NC(C(C)=O)C(=O)Nc3ccccc3C)c(Cl)c2)cc1Cl)C(=O)Nc1ccccc1C (stereo unspecified) |  |  |  | not readily biodegradable |  |  | 
61 | Cc1cc(C)cc(NC(=O)N(C)C)c1 |  |  |  |  |  |  | 1.73
62 | CC1=CC(=O)OC1=O |  | 7.5 °C | 214 °C |  |  |  | 
63 | Cc1ccc(S(=O)(=O)C2(C(=O)OC(C)C)CC2)cc1 |  | 65.5 °C |  |  |  |  | 
64 | CC=CCCl | 1.84 |  | 80.7 °C |  |  |  | 
65 | Cc1ccc(S(=O)(=O)N(Cl)Cl)cc1 |  | 83 °C |  |  |  |  | 
66 | Brc1ccccc1-c1ccccc1 |  | 1.5 °C | 297 °C |  |  |  | 

Reference: the OPERA property sets (Mansouri et al. 2018)
